Data as given in patent US20250215002A1, “SOLID FORMS OF TYK2 INHIBITORS AND METHODS OF USE” (Takeda Pharmaceutical Company Limited, priority 2022, published 2025).
“Also recorded” adds a separate entry of the source.

Experiments:
Assay type in all cases: physicochemical
[1] = Stable form screen slurries, resulting solid form by XRPD
Text: Early in the study, slurries were set up for the stable form screen at RT (Table 5, infra). In these experiments, solids of the as-received mixture of Form A+minor Material B were combined with given solvent systems at a solid loading that allowed for undissolved solids to remain, and the mixtures were stirred at ambient conditions. […] Two slurries were selected for isolation at that time to confirm the solid form and chemical composition, while the remaining slurries were covered with foil as a precaution. The slurry in THF, which was observed as a green suspension (darker than many of the other slurries), caused conversion to a new crystalline form, designated as Form C.
Additional slurries were set up at elevated temperatures (˜60° C. and ˜80° C.) and sub-ambient temperatures (2 to 8° C.) as well. […]
XRPD patterns were collected with a PANalytical X'Pert PRO MPD or a PANalytical Empyrean diffractometer using an incident beam of Cu radiation produced using a long, fine-focus source. […] Prior to the analysis, a silicon specimen (NIST SRM 640e) was analyzed to verify the observed position of the Si 111 peak is consistent with the NIST-certified position. A specimen of the sample was sandwiched between 3-μm-thick films and analyzed in transmission geometry. […]

[2] = Heating/desolvation experiments (TGA), recovered solids by XRPD
Protocol: TG analysis was performed using a Mettler-Toledo TGA/DSC3+ analyzer. Temperature calibration was performed using calcium oxalate, indium, tin, and zinc. The sample was placed in an aluminum pan. The pan was hermetically sealed, the lid pierced, then inserted into the TG furnace. A weighed aluminum pan configured as the sample pan was placed on the reference platform. The furnace was heated under nitrogen. Samples were analyzed from 25° C. to 350° C. at 10° C./min. The TGA/DSC3+ instrument was also used for select heating/desolvation experiments, in which solids were heated as described to a given temperature, then recovered and analyzed by XRPD.

[3] = Dynamic vapor sorption (DVS) moisture sorption/desorption; settings: for Hygroscopicity (description): DVS 5-95% RH
Protocol: Moisture sorption/desorption data were collected on a Surface Measurement System DVS Intrinsic instrument. The samples were not dried prior to analysis. Sorption and desorption data were collected over a range from 5% to 95% RH in 10% RH increments under a nitrogen purge. The equilibrium criteria used for the analyses were 0.001 dm/dt weight change in 5 minutes with a minimum step time of 30 minutes and maximum equilibration time of 180 minutes with a 3-minute data logging interval. Data were not corrected for the initial moisture content of the samples.

[4] = Relative humidity stressing (~90% RH), solid form by XRPD; settings: RT
Text: Select materials were transferred to a vial, which was then uncapped and placed inside ajar containing a saturated aqueous barium chloride solution for ˜90% RH in the headspace (See, Nyqvist, H. E., Saturated Salt Solutions for Maintaining Specified Relative Humidities, Int. J. Pharm. Technol. Prod. Manuf 1983, 4, 47-48, which is incorporated by reference in its entirety). Jars were stored at the stated temperatures.
XRPD patterns were collected with a PANalytical X'Pert PRO MPD or a PANalytical Empyrean diffractometer using an incident beam of Cu radiation produced using a long, fine-focus source. An elliptically graded multilayer mirror was used to focus Cu Kα X-rays through the specimen and onto the detector. Prior to the analysis, a silicon specimen (NIST SRM 640e) was analyzed to verify the observed position of the Si 111 peak is consistent with the NIST-certified position. A specimen of the sample was sandwiched between 3-μm-thick films and analyzed in transmission geometry. A beam-stop, short antiscatter extension, and antiscatter knife edge were used to minimize the background generated by air. Soller slits for the incident and diffracted beams were used to minimize broadening and asymmetry from axial divergence. Diffraction patterns were collected using a scanning position-sensitive detector (X'Celerator) located 240 mm from the specimen and Data Collector software v. […]

[5] = Slurries of Form C at high water activity, resulting form by XRPD; settings: 1 d
Protocol: In addition to the slurries starting with Form A, two slurries of Form C were set up at high water activity conditions to study possible conversion to a hydrate (Table 9, supra). THF/water 50:50 (aw ˜1) and neat water (aw 1) were used.
Suspensions were prepared by adding enough solids to a given solvent at the stated conditions so that undissolved solids were present. The mixture was then agitated (typically by stirring or oscillation) in a sealed vial at a given temperature for an extended period of time. The solids were isolated as described above.

Compound	Critical water activity (aw) between Form A and Form C ([1]; RT, hydrate Form A versus anhydrous Form C)	XRPD Result after heating ([2]; heat to 150° C. (TGA))	Hygroscopicity (description) [3]	DVS weight gain 5-95% RH ([3]; sorption 5-95% RH) [%]	XRPD Result after RH stress ([4]; 6 d)	Thermodynamic stability of the form (description) ([1]; between 2° C. and 80° C.)	XRPD Result after heating ([2]; heat to 270° C., cool to 40° C., heat to 200° C. (TGA))	DVS weight change at 5% RH ([3]; 5% RH) [% weight change at 5% RH]	post-DVS XRPD (solid form after DVS) ([3]; after sorption/desorption cycle 5-95-5% RH)	DVS weight loss 95-5% RH ([3]; desorption 95-5% RH) [% weight loss 95-5% RH]	DVS weight gain 5-95% RH, equivalent moles of water ([3]; sorption 5-95% RH) [mol]	XRPD Result after slurry ([5]; slurry in THF/water 50:50 (aw ~1))	XRPD Result after slurry ([5]; slurry in water (aw 1))	XRPD Result after RH stress ([4]; 11 d)
CNc1cc(Nc2cccn(-c3ccccn3)c2=O)nc2c(C(=O)N[C@@H]3CC[C@H]3OC)cnn12 [Form A]	0.69-0.82	Full conversion to Form C; also recorded: converted to Form C upon	significant hygroscopicity	4.58	still consisting of Form A	–	–	–	–	–	–	–	–	–
CNc1cc(Nc2cccn(-c3ccccn3)c2=O)nc2c(C(=O)N[C@@H]3CC[C@H]3OC)cnn12 [Form C]	–	–	limited hygroscopicity	1.75	–	likely thermodynamically stable anhydrous/non-solvated form	Material D	0.00	consistent with Form C	1.80	~0.5	Full conversion to Form A	no form conversion	consistent with Form C; also recorded: did not readily convert to a hydrate
